IC50 data for 60 compounds are collected here from PubChem BioAssay AID588780 (Sanford-Burnham Center for Chemical Genomics, 2011).

Calls of active or inactive are those of the source.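 How the source made its calls: active means compounds whose fitted half-maximal concentration in the cell-protection dose series is at or below a set limit; inactive means the rest.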

This assay relates to H9c2 cardiomyocytes, 2-deoxyglucose stress, ATP luminescence, 2 h. In words: protection of cardiomyocytes from 2-deoxyglucose injury, dose response, cell-based, 2-deoxyglucose stress, uHTS hits (AID 588780).
One may read the IC50 as the midpoint of a concentration-inhibition curve. With `N#Cc1ccccc1S(=O)(=O)N1CCN(c2nc(-c3cccnc3)nc3ccccc23)CC1`, the IC50 is > 79 µM (inactive).

For the compound `COc1ccc(OC)c(Nc2nc(N)nc(-c3cc4ccccc4o3)n2)c1`, the IC50 is > 79 µM (inactive).

On to `Cc1ccc(C)c(NC(=O)C(Sc2ncnc3ccccc23)c2ccccc2)c1` (stereo not given), for which the IC50 was > 79 µM (inactive).

With `CCCCCn1c(=O)c(C(=O)NCc2ccccn2)c(O)c2ccccc21`, the IC50 is 7.77 µM.

Regarding `CN(C)S(=O)(=O)n1cc(/C=C(\NC(=O)c2ccccc2F)C(=O)NCCN2CCOCC2)c2ccccc21`, the IC50 was > 79 µM (inactive).

As to `O=C(Nc1ccccc1)c1nc[nH]c1C(=O)NCCCCNC(=O)c1[nH]cnc1C(=O)Nc1ccccc1`, the IC50 is > 79 µM (inactive).

On to `CC(=O)c1ccc(C(=O)Nc2nnc(-c3ccc(Cl)cc3)o2)cc1`, for which the IC50 is 15.7 µM.

In the case of `O=C(CC(C(=O)c1ccccc1)c1ccccc1)c1ccccc1` (stereo not given), the IC50 is 12.6 µM.

For the compound `CS/C(=N\S(=O)(=O)c1ccccc1)c1ccccc1`, the IC50 was 41.3 µM (inactive).

With `Cc1ccc(S(=O)(=O)N2CCOCC2)cc1C(=O)Nc1nc(-c2ccccn2)cs1`, the IC50 was 9.58 µM.

On to `Oc1ccc(Br)cc1C=Nc1ccc2[nH]ncc2c1`, for which the IC50 is > 79 µM (inactive).

For `O=C(Nc1ccc2c(c1)OCO2)c1cnn2c(C(F)(F)F)cc(-c3ccco3)nc12`, the IC50 is 7.33 µM.

On to `COc1cc(/C=C/C(=O)CC(=O)/C=C/c2ccc(O)c(OC)c2)ccc1O`, for which the IC50 was > 79 µM (inactive).

Take `Cc1nn2c(-c3cccc(NC(=O)c4ccco4)c3)nnc2c2ccccc12`: the IC50 is > 79 µM (inactive).

Regarding `COc1ccc(C(=O)NNC(=O)CCc2nc3ccccc3c(=O)[nH]2)cc1`, the IC50 is > 79 µM (inactive).

As to `COc1cccc(/C=N/Nc2nc3ccccc3n3cnnc23)c1`, the IC50 is > 79 µM (inactive).

With `O=C(CN(c1ccc2c(c1)OCCO2)S(=O)(=O)c1ccccc1)Nc1ccc2c(c1)OCO2`, the IC50 was > 79 µM (inactive).

Turning to `COc1ccc(NC(=O)c2cc3c(=O)n(C)c4ccccc4c3n2C)cc1OC`, the IC50 is > 79 µM (inactive).

Consider `COc1cccc(NC(=O)NC2(C(F)(F)F)Oc3ccccc3O2)c1`, for which the IC50 was 16.9 µM.

Consider `CSc1nnc(NC(=O)c2cc3ccccc3oc2=O)s1`, for which the IC50 is > 79 µM (inactive).

`O=C(Nc1cc(S(=O)(=O)N2CCOCC2)ccc1N1CCCCC1)c1cc(-c2ccccn2)nc2ccccc12`: the IC50 was > 79 µM (inactive).

On to `COc1cc(-c2ccc3oc(-c4ccsc4)cc(=O)c3c2)cc(OC)c1OC`, for which the IC50 is > 79 µM (inactive).

`COc1ccccc1OP(=O)(Nc1cccnc1)Oc1ccccc1OC`: the IC50 is > 79 µM (inactive).

Turning to `Cc1ccc(C(c2c(C)n(C)n(-c3ccccc3)c2=O)c2c(C)n(C)n(-c3ccccc3)c2=O)s1`, the IC50 is > 79 µM (inactive).

As to `CC1(c2ccccc2)NC(=O)N(CC(=O)Nc2cccc(/C=C/c3ccccn3)c2)C1=O` (stereo not given), the IC50 was 19 µM.

Turning to `Cc1ccc(C(=O)N/N=C\c2ccc(-c3ccc(Cl)cc3)o2)cn1`, the IC50 was 9.3 µM.

`C[C@H](CO)N1C[C@H](C)[C@@H](CN(C)C(=O)Nc2ccc3c(c2)OCO3)Oc2c(NC(=O)Nc3ccc(C(F)(F)F)cc3)cccc2C1=O`: the IC50 was > 79 µM (inactive).

With `FC(F)(F)c1nnc2ccc(N3CCCC3)nn12`, the IC50 was > 79 µM (inactive).

Turning to `COc1ccc(NCc2n[nH]c(=O)c3ccccc23)cc1`, the IC50 is > 79 µM (inactive).

Consider `COc1cc(/C=C/C(=O)OCC(=O)N2c3ccccc3NC(=O)C2(C)C)cc(OC)c1OC`, for which the IC50 is > 79 µM (inactive).

For the compound `O=c1[nH]c2c(c3c1CCCC3)CCCC2`, the IC50 is > 79 µM (inactive).

For `CSCCC(NS(=O)(=O)c1ccccc1)C(=O)OCc1cc(=O)oc2cc(O)ccc12` (stereo not given), the IC50 is > 79 µM (inactive).

`COc1ccc(-c2cc(=O)oc3cc(OC(=O)C4CCCCC4)ccc23)cc1`: the IC50 was 31.7 µM (inactive).

With `COc1ccc(C=NNc2nc3c([nH]2)c(=O)n(C)c(=O)n3C)cc1`, the IC50 was > 79 µM (inactive).

On to `COc1ccc(/C=N/NC(=O)c2cccnc2)cc1CSc1nc2ccccc2s1`, for which the IC50 is 12.2 µM.

As to `CC(=O)Nc1ccc(C(=O)N/N=C/c2ccccc2OC(=O)c2ccc(Cl)cc2)cc1`, the IC50 is 11.5 µM.

Turning to `Cc1noc(C)c1COC(=O)COc1ccc2c(C)cc(=O)oc2c1`, the IC50 was > 79 µM (inactive).

As for `CCn1ncc2c1C(=O)NC1c3ccccc3C(=O)N21` (stereo not given), the IC50 was > 79 µM (inactive).

As for `O=C(CCS(=O)(=O)c1ccccc1)Nc1nc(-c2ccccn2)cs1`, the IC50 was 31.3 µM (inactive).

On to `O=C(CN1CCN(c2ccccn2)CC1)Nc1ccc([N+](=O)[O-])cc1C(=O)Nc1ccccc1F`, for which the IC50 is 11.3 µM.

As to `COc1cccc(Nc2nc3ccccc3n3nnnc23)c1`, the IC50 is 14.6 µM.

`O=C1COc2ccc(-c3n[nH]c(=O)c4ccccc34)cc2N1`: the IC50 was > 79 µM (inactive).

With `CCOC(=O)c1cccc(C2=C(CNC(=O)c3cccnc3)[C@H]3CC[C@@H](C2)N3Cc2ccccc2)c1`, the IC50 is > 79 µM (inactive).

Take `Cc1cccc(NC(=O)c2nc[nH]c2C(=O)NCCCCCCNC(=O)c2[nH]cnc2C(=O)Nc2cccc(C)c2)c1`: the IC50 was > 79 µM (inactive).

Regarding `COC(=O)c1cc(OC)c(OC)cc1NC(=O)c1ccc(C)o1`, the IC50 was 25.9 µM.

Consider `Cn1ncc(Cl)c1C(=O)N/N=C/c1ccccn1`, for which the IC50 is > 79 µM (inactive).

For `COc1ccc(CNc2nn3c(-c4cccc(C(=O)N(C)C)c4)cnc3s2)cc1`, the IC50 was > 79 µM (inactive).

For the compound `O=C(NCc1ccc2c(c1)OCO2)c1n[nH]c(=O)c2ccccc12`, the IC50 was > 79 µM (inactive).

As for `O=C(NC1CCCCC1)C(c1ccc2ncccc2c1)N(Cc1ccco1)C(=O)c1ccc2c(c1)OCCO2` (stereo not given), the IC50 was 31.4 µM (inactive).

Turning to `COc1ccc(NS(=O)(=O)c2ccc3ccccc3c2)c2ncccc12`, the IC50 was > 79 µM (inactive).

Regarding `Cc1ccc(OCC(=O)NCc2n[nH]c(=O)c3ccccc23)cc1`, the IC50 is > 79 µM (inactive).

In the case of `COc1cc2c(cc1OC)CN(c1nc(-c3cccnc3)nc3ccccc13)CC2`, the IC50 is > 79 µM (inactive).

Take `COc1ccccc1CN(Cc1nc2ccccc2c(=O)[nH]1)S(=O)(=O)c1ccc2ccccc2c1`: the IC50 is > 79 µM (inactive).

Regarding `COc1ccc(-c2cc3nc(-c4ccccc4)cc(N4CCN(C(C)=O)CC4)n3n2)cc1`, the IC50 is 12 µM.

On to `O=C(Cn1[nH]c(=O)c2ccccc2c1=O)N1CC=C(c2ccccc2)CC1`, for which the IC50 was 21 µM.

On to `COc1ccc(NCc2cc3cc(OC)ccc3[nH]c2=O)cc1`, for which the IC50 is > 79 µM (inactive).

For `Cc1ccc2c(C)nc(Nc3nc(CSc4nc5ccccc5[nH]4)cc(=O)[nH]3)nc2c1`, the IC50 is > 79 µM (inactive).

On to `CCOC(=O)C1=C(C)NC(C)=C(C(=O)OCC)C1C(=O)OCC(=O)NC(C)C`, for which the IC50 is 19.7 µM.

Turning to `O=C(CCc1nc2ccccc2c(=O)[nH]1)NCCN1C(=O)S/C(=C\c2ccc(OC(F)F)cc2)C1=O`, the IC50 is > 79 µM (inactive).

In the case of `Cc1nn(Cc2ccc(C(=O)N3CCN(C(=O)c4ccco4)CC3)o2)c(C)c1[N+](=O)[O-]`, the IC50 was > 79 µM (inactive).
